“And” between values parts separate entries of the source, which are not always exact repeats. Equal values may be shown once. “Also recorded” adds a separate entry of the source. Read-outs that look alike come from different tables or passages of the source. Marks after values point to notes of the source that are not given here.
Columns and labels:
[1] = in vivo, 300 mg
[2] = human, in vivo
[3] = parameters: method as in PMID 15844071; settings: cited from earlier work
clinical = settings: human, plasma, oral, 300 mg
[4] = Tolerability and safety of rifabutin and LPV/r: clinical and laboratory adverse events (DAIDS grading)
[5] = Steady-state plasma pharmacokinetics of rifabutin and 25-O-desacetylrifabutin with and without LPV/r-based ART (three-period crossover, LC/MS/MS, non-compartmental analysis); settings: for AUC(0-t): human, plasma, oral, median (interquartile range), n = 14
[6] = Steady-state plasma pharmacokinetics of lopinavir given with two rifabutin doses (LCMS/MS, non-compartmental analysis); settings: for AUC(0-t): human, plasma, oral, Median (Interquartile range), 14 patients
[7] = RBT dose at time of AE 150 mg daily (with LPV/r ART), listed as RBT
[8] = RBT dose at time of AE 150 mg tiw (with LPV/r ART), listed as RBT
[9] = sixteen patients, all rifabutin doses

## 25-O-desacetylrifabutin [d-RBT]
[1]
  AUC0–48: 546.6 (471.4-688.2)^* ng.h/mL
[2]
  Association between plasma concentration and adverse events such as neutropenia or elevated transaminases: unable to show a significant association

## CO[C@H]1/C=C/O[C@@]2(C)Oc3c(C)c(O)c4c(c3C2=O)C2=NC3(CCN(CC(C)C)CC3)NC2=C(NC(=O)/C(C)=C\C=C\[C@H](C)[C@H](O)[C@@H](C)[C@@H](O)[C@@H](C)[C@H](OC(C)=O)[C@@H]1C)C4=O [Rifabutin, rifabutin]
[3]; TB-HIV co-infected patients with AUC0–24 < 4.5 μg.h/mL
  Patients who relapsed or failed therapy that developed ARR: 83%
[3]; TB-HIV co-infected patients with AUC above the threshold of 4.5 μg.h/mL
  Patients who relapsed or failed therapy that developed ARR: 33%
clinical
  Cmax: 292 ng/mL
[4]; [7]
  AE (grade 3 laboratory adverse event, individual subject): Neutropenia; also recorded: AST increased; also recorded: Amylase increased
  Days on RBT at grade 3 laboratory AE (individual subject): 53 days and 77 days and 106 days and 113 days and 57 days
[4]; [8]
  AE (grade 3 laboratory adverse event, individual subject): AST increased; also recorded: Amylase increased; also recorded: Neutropenia
  Days on RBT at grade 3 laboratory AE (individual subject): 96 days and 119 days and 112 days
[4]; RBT dose at time of AE 300 mg daily
  AE (grade 3 laboratory adverse event, individual subject): Neutropenia
[4]; RBT dose at time of AE 300 mg daily, listed as RBT
  Days on RBT at grade 3 laboratory AE (individual subject): 29 days and 27 days and 28 days
[4]; all doses, sixteen patients
  Grade 4 laboratory toxicities / events: no grade 4 laboratory toxicities
  Tolerability: well tolerated
[4]; all doses, sixteen patients, listed as rifabutin
  Grade 4 laboratory toxicities / events: no grade 4 laboratory events
[4]; human, in vivo
  Association between plasma concentration and adverse events such as neutropenia or elevated transaminases: unable to show a significant association
[4]; patient taking rifabutin 300 mg daily, after 1 month of rifabutin, prior to / coinciding with start of ART
  Uveitis: One case of uveitis (grade 4); also recorded: Grade 2 uveitis occurred in one patient
[4]; sixteen patients
  Serious adverse events: two serious adverse events (bacterial meningitis and pyelonephritis), both considered unrelated to rifabutin
[4]; [9]
  Grade 3 elevations in transaminases and amylase, number: 2
  Grade 3 neutropenia, number of occasions: 7 occasions
  Grade 3 neutropenia, number of patients: 4 patients and 5 patients
[5]; RBT 150 mg daily (with LPV/r ART) with RBT 300 mg daily
  GMR (90% CI) of Cmin24h: 2.7 (2.2 – 3.2)
[5]; RBT 150 mg tiw (with LPV/r ART) with RBT 300 mg daily
  GMR (90% CI) of Cmin24h: 1.2 (1.0 – 1.4)
[5]; RBT 150 mg tiw with RBT 150 mg daily (both with LPV/r ART)
  GMR (90% CI) of Cmin24h: 0.5 (0.4 – 0.5)
[5]; daily dose of 150 mg compared to the three times a week dose, both with LPV/r
  Increase in AUC0–24: more than two fold increase
[5]; 150 mg, AUC0–24, Rifabutin 150 mg daily plus LPV/r, steady state
  AUC(0-t): 4770 ng·h/mL
[5]; 150 mg, AUC0–24, Rifabutin 150 mg tiw plus LPV/r, steady state
  AUC(0-t): 2310 ng·h/mL
[5]; 150 mg, AUC0–48, Rifabutin 150 mg daily plus LPV/r, calculated by 2X AUC0–24
  AUC(0-t): 9530 ng·h/mL
[5]; 300 mg, AUC0–24, Rifabutin 300 mg daily without LPV/r, steady state
  AUC(0-t): 3050 ng·h/mL
[5]; 300 mg, AUC0–48, Rifabutin 300 mg daily without LPV/r, calculated by 2X AUC0–24
  AUC(0-t): 6110 ng·h/mL
[5]; rifabutin 150 mg daily with LPV/r
  Patients with AUC0–24 values >4.5 μg.h/mL: 71%
[5]; rifabutin tiw dosing with LPV/r
  Patients with AUC0–24 values >4.5 μg.h/mL: 14%
[5]; tiw rifabutin arm (150 mg tiw with LPV/r)
  Patients with AUC0-24 < 4.5 μg.h/mL: 86%

## Cc1cccc(C)c1OCC(=O)N[C@@H](Cc1ccccc1)[C@@H](O)C[C@H](Cc1ccccc1)NC(=O)[C@H](C(C)C)N1CCCNC1=O [lopinavir]
[6]; both rifabutin doses
  Median lopinavir trough (C0) concentrations versus recommended lower limit for ART-naïve patients: > 1 µg
[6]; AUC0–12, RBT 150 mg daily plus LPV/r (400/100 mg)
  AUC(0-t): 160000 ng·h/mL
[6]; AUC0–12, RBT 150 mg tiw plus LPV/r (400/100 mg)
  AUC(0-t): 140000 ng·h/mL
[6]; rifabutin 150 mg daily versus 150 mg tiw
  Differences in AUC0–12 and Cmax between the two doses of rifabutin: not significant

— PMC4277828 (BMC Pharmacology & Toxicology, 2014)
